From ChEMBL document CHEMBL1136474, “4-(4-alkylpiperazin-1-yl)phenyl group: a novel class of basic side chains for selective estrogen receptor modulators” (2003) come the findings set out here.

One assay concerns Rattus norvegicus. The assay is described as follows: Plasma cholesterol lowering effect was determined in Sprague-Dawley rats at a dose of 1 mg/kg/day for 4 days. In kind it is functional.
The target of assay [1] is Estrogen receptor (Homo sapiens) (UniProt Q92731+P03372). The assay is described as follows: Binding affinity towards estrogen receptor (ER) using [3H]17-beta-estradiol as radioligand in human breast cancer MCF-7 cells relative to compound 1. It counts as cell-based. The note with it: MCF7.
The target of assay [2] is T1, Estrogen receptor (Rattus norvegicus) (UniProt P06211+Q62986). The note with it: Uterus.
Description: Uterotrophic effect as uterine weight gain in rats at 1 mg/kg/day oral dose for 4 days
Assay [3] addresses T1, Estrogen receptor (Rattus norvegicus). The assay is described as follows: Uterotrophic effect as uterine weight gain in rats at 10 mg/kg/day oral dose for 4 days. It counts as functional, organism-based. Particulars: Uterus.

Turning to `CC(C)CN1CCN(c2ccc(C3=CC4(CCc5cc(O)ccc54)c4ccc(O)cc43)cc2)CC1` (stereo unspecified), in the assay on Rattus norvegicus, the Decrease is recorded as 87%. In assay [1], this compound showed a relative binding affinity (RBA) of 42. The same compound gave a Uterotrophic effect in assay [2] of 185.
As to `Oc1ccc2c(c1)CCC21C=C(c2ccc(OCCN3CCCCC3)cc2)c2cc(O)ccc21` (stereo unspecified), the Decrease in the assay with Rattus norvegicus came out at 44%.
With `CN1CCN(c2ccc(C3=CC4(CCc5cc(O)ccc54)c4ccc(O)cc43)cc2)CC1` (stereo unspecified), in assay [1], the relative binding affinity (RBA) turned out to be 207.
Regarding `CCC1CCCN(c2ccc(C3=CC4(CCc5cc(O)ccc54)c4ccc(O)cc43)cc2)CC1` (stereo unspecified), the Decrease with Rattus norvegicus is given as 32%. This compound returned a relative binding affinity (RBA) in assay [1] of 387. The compound also gave a Uterotrophic effect in assay [2] of 114.
With `CCN(CC)CCOc1ccc(C2=CC3(CCc4cc(O)ccc43)c3ccc(O)cc32)cc1` (stereo unspecified), the Decrease in the assay on Rattus norvegicus is reported as 18%. This compound gave a relative binding affinity (RBA) in assay [1] of 153.
With `CCN1CCN(c2ccc(C3=CC4(CCc5cc(O)ccc54)c4ccc(O)cc43)cc2)CC1` (stereo unspecified), the Decrease in the assay with Rattus norvegicus came to 52%. In addition, the relative binding affinity (RBA) in assay [1] turned out to be 181. The compound also showed a Uterotrophic effect in assay [2] of 208.
Taken in the same sequence, the figures for `CCCN1CCN(c2ccc(C3=CC4(CCc5cc(O)ccc54)c4ccc(O)cc43)cc2)CC1` (stereo unspecified) were 55%, 186 and 223.
Turning to `Oc1ccc2c(c1)CCC21C=C(c2ccc(CCCN3CCCCC3)cc2)c2cc(O)ccc21` (stereo unspecified), the Decrease with Rattus norvegicus was 6%. This compound gave a relative binding affinity (RBA) in assay [1] of 956.
Taken in the same sequence, the figures for `Cc1cc(OCCN2CCCCC2)ccc1C1=CC2(CCc3cc(O)ccc32)c2ccc(O)cc21` (stereo unspecified) were -12% and 70.
For `Oc1ccc2c(c1)CCC21C=C(c2ccc(OCCN3CCCCC3)c(F)c2)c2cc(O)ccc21` (stereo unspecified), in the assay on Rattus norvegicus, the Decrease turned out to be 16%. This compound also displayed a relative binding affinity (RBA) in assay [1] of 247.
Taken in the same sequence, the figures for `CC1CCN(CCOc2ccc(C3=CC4(CCc5cc(O)ccc54)c4ccc(O)cc43)cc2)CC1` (stereo unspecified) were 18% and 428.
Take `Oc1ccc2c(c1)CCC21C=C(c2ccc(N3CCCCC3)cc2)c2cc(O)ccc21` (stereo unspecified): the Decrease in the assay on Rattus norvegicus amounted to 51%. This compound showed a relative binding affinity (RBA) in assay [1] of 125. Also, the Uterotrophic effect in assay [2] worked out at 139. The compound further yielded an Increase in assay [3] of 26.5%.
Take `Cc1cc(C2=CC3(CCc4cc(O)ccc43)c3ccc(O)cc32)ccc1OCCN1CCCCC1` (stereo unspecified): the Decrease in the assay on Rattus norvegicus turned out to be 4.5%. In assay [1], this compound came in with a relative binding affinity (RBA) of 122.
The corresponding values for `Cc1cc(C2=CC3(CCc4cc(O)ccc43)c3ccc(O)cc32)cc(C)c1OCCN1CCCCC1` (stereo unspecified) are -9.1% and 22.
Taken in the same sequence, the figures for `CC(C)N1CCN(c2ccc(C3=CC4(CCc5cc(O)ccc54)c4ccc(O)cc43)cc2)CC1` (stereo unspecified) were 21% and 103.
Taken in the same sequence, the figures for `CN(C)CCOc1ccc(C2=CC3(CCc4cc(O)ccc43)c3ccc(O)cc32)cc1` (stereo unspecified) were 6% and 85.
In turn, `Oc1ccc2c(c1)CCC21C=C(c2cccc(OCCN3CCCCC3)c2)c2cc(O)ccc21` (stereo unspecified) yielded a relative binding affinity (RBA) in assay [1] of 47.
As for `Oc1ccc2c(c1)CCC21C=C(c2ccc(OCCCN3CCCCC3)cc2)c2cc(O)ccc21` (stereo unspecified), the Decrease in the assay on Rattus norvegicus was determined as 8.5%. For the same compound, in assay [1], the relative binding affinity (RBA) came out at 460.
Regarding `Oc1ccc2c(c1)CCC21C=C(c2ccc(OCCN3CCCC3)cc2)c2cc(O)ccc21` (stereo unspecified), the Decrease in the assay with Rattus norvegicus is given as 17%. The same compound displayed a relative binding affinity (RBA) in assay [1] of 118.
